# PMC7692551, “Characterization of a Robust and pH-Stable Tannase from Mangrove-Derived Yeast Rhodosporidium diobovatum Q95” (Marine Drugs, 2020)
# System: T1, TanRd
# T1 construct: recombinant secreted from Yarrowia lipolytica, codon-optimised, XPR2 signal peptide, His-tag; ORF 1719 bp, 572 aa, predicted native signal peptide 1-19
# Experiment: gallate ester hydrolysis, gallic acid release
# Type: biochemical, Rhodotorula diobovata
# Details: kinetic assay conditions not stated
# Excerpt: gallate ester hydrolysis, gallic acid release on TanRd
row,Structure (SMILES),Km [µM]
1,"O=C(O[C@H]1Cc2c(O)cc(O)cc2O[C@@H]1c1ccc(O)c(O)c1)c1cc(O)c(O)c(O)c1 [CG, catechin gallate]",1670
2,"O=C(O[C@@H]1Cc2c(O)cc(O)cc2O[C@@H]1c1ccc(O)c(O)c1)c1cc(O)c(O)c(O)c1 [ECG, epicatechin gallate]",1650
3,"O=C(O[C@@H]1Cc2c(O)cc(O)cc2O[C@@H]1c1cc(O)c(O)c(O)c1)c1cc(O)c(O)c(O)c1 [EGCG, epigallocatechin gallate]",2190

# Other lines, results leading:
row,Km [µM],Structure (SMILES)
1,2310,"COC(=O)c1cc(O)c(O)c(O)c1 [MG, methyl gallate]"
2,1490,"CCCOC(=O)c1cc(O)c(O)c(O)c1 [PG, propyl gallate]"
